Patent US20020137929A1, “1 - (3-heterocyclylphenyl) isothiourea, -isourea, -guanidine and -amidine herbicidal agents” (Intellectual Property Department, BASF Aktiengesellschaft, priority 1998, published 2002)

Legend:
[1] = tested on: AMBEL (Ragweed, Common); assay: Postemergence herbicidal evaluation; assay type: in vivo, Ambrosia artemisifolia
In short: (§1)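 Scores (0–9) reflect plant stand, vigor, malformation, size, chlorosis and general appearance relative to control, read 4 to 5 weeks after treatment and averaged where tests were repeated. Application: about 0.0156–0.500 kg/ha sprayed at 40 psi onto two-week seedlings.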

[2] = tested on: CASOB (Sicklepod); assay: Postemergence herbicidal evaluation; assay type: in vivo, Cassia obtusifolia
In short: as §1

[3] = tested on: CHEAL (Lambsquarters, Common); assay: Postemergence herbicidal evaluation; assay type: in vivo, Chenopodium album
In short: as §1

[4] = tested on: GALAP (Galium); assay: Postemergence herbicidal evaluation; assay type: in vivo, Galium aparine
In short: as §1

[5] = tested on: ECHCG (Barnyardgrass); assay: Postemergence herbicidal evaluation; assay type: in vivo, Echinochloa crus-galli
In short: as §1

[6] = tested on: SETVI (Foxtail, Green); assay: Postemergence herbicidal evaluation; assay type: in vivo, Setaria viridis
In short: as §1

[7] = tested on: GLXMAW (Soybean, Williams); assay: Postemergence herbicidal evaluation; assay type: in vivo, Glycine max, (L.) Merr. cv Williams
In short: as §1

[8] = tested on: ORYSAT (Rice, Tebonnet); assay: Postemergence herbicidal evaluation; assay type: in vivo, Oryza sativa, (L.) Tebonnet
In short: as §1

[9] = tested on: CASOB (Sicklepod); assay: Preemergence herbicidal evaluation; assay type: in vivo, Cassia obtusifolia; details: rated 4-5 weeks after treatment
In short: (§2)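 Test compound, dissolved in aqueous acetone, was sprayed over planted soil cups at an equivalent of about 0.0156 to 0.500 kg/ha; seeds had been mixed with potting soil. Greenhouse growth followed, with visual 0-9 scoring of injury at four to five weeks.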

[10] = tested on: GALAP (Galium); assay: Preemergence herbicidal evaluation; assay type: in vivo, Galium aparine; details: rated 4-5 weeks after treatment
In short: as §2

[11] = tested on: ZEAMX (Corn, Field); assay: Preemergence herbicidal evaluation; assay type: in vivo, Zea mays; details: rated 4-5 weeks after treatment
In short: as §2

[12] = tested on: CYPIR (Rice Flatsedge); assay: Preemergence weed control under flooded paddy conditions; assay type: in vivo, Cyperus iria; details: rated 3-4 weeks after treatment
In short: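 Ratings on a 0-9 visual scale cover stand, vigor, malformation, size, chlorosis and overall appearance relative to a control, taken three to four weeks post-treatment. Application was into flood water over freshly sown silt loam at roughly 0.0313 to 0.500 kg/ha.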

[13] = tested on: CYPSE (Flatsedge); assay: as above; assay type: in vivo, Cyperus serotinus; details: rated 3-4 weeks after treatment
In short: (§3)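 Flooded-pot preemergence screen with silt loam and seeds in the upper 0.5 cm. Dose about 0.0313 to 0.500 kg/ha, delivered into flood water; visual 0-9 score after 3 to 4 weeks.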

[14] = tested on: SAGPY (Arrowhead (Pygmaea)); assay: as above; assay type: in vivo, Sagittaria pygmaea; details: rated 3-4 weeks after treatment
In short: as §3

[15] = tested on: CYPSE (Flatsedge); assay: Postemergence weed control under flooded paddy conditions; assay type: in vivo, Cyperus serotinus; details: postemergence weeds, 3-4 weeks after treatment
In short: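 Flood-water application, about 0.0313–0.500 kg/ha a.i. in aqueous/acetone 50/50 v/v; water depth 1.5–3 cm throughout. Weeds 3–5 cm, rice 1.5–2.5 leaf. Greenhouse; 0–9 visual rating vs control at 3–4 wk.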

CCOC(=O)CN1C(=O)CS(=O)(=O)C1=Nc1cc(-n2c(=O)cc(C(F)(F)F)n(C)c2=O)c(F)cc1Cl [Compound 46, 2-{{2-Chloro-5-[3,6-dihydro-3-methyl-2,6-dioxo-4-(trifluoromethyl)-1(2H)-pyrimidinyl]-4-fluoro-phenyl}imino}-4-oxo-3-thiazolidineacetic acid, ethyl ester, 1,1-dioxide]
1.5: Postemergence herbicidal rating ORYSAT ([8]; Rate 0.0625 kg/ha)
5.5: Postemergence herbicidal rating GLXMAW ([7]; Rate 0.0625 kg/ha)
5.0: Postemergence herbicidal rating AMBEL ([1]; Rate 0.0625 kg/ha) | Postemergence herbicidal rating GLXMAW ([7]; Rate 0.0313 kg/ha)
6.0: Herbicidal rating CYPSE ([13]; 0.2500 kg/ha) | Herbicidal rating CYPSE ([15]; rate 0.2500 kg/ha)
1.0: Postemergence herbicidal rating ORYSAT ([8]; Rate 0.0313 kg/ha) | Preemergence herbicidal rating ZEAMX ([11]; rate 0.2500 kg/ha)
0.0: Postemergence herbicidal rating AMBEL ([1]; Rate 0.0313 kg/ha) | Postemergence herbicidal rating CASOB ([2]; Rate 0.0313 kg/ha) | Postemergence herbicidal rating CASOB ([2]; Rate 0.0625 kg/ha) | Postemergence herbicidal rating CHEAL ([3]; Rate 0.0313 kg/ha) | Postemergence herbicidal rating CHEAL ([3]; Rate 0.0625 kg/ha) | Postemergence herbicidal rating GALAP ([4]; Rate 0.0313 kg/ha) | Postemergence herbicidal rating GALAP ([4]; Rate 0.0625 kg/ha) | Postemergence herbicidal rating ECHCG ([5]; Rate 0.0313 kg/ha) | Postemergence herbicidal rating ECHCG ([5]; Rate 0.0625 kg/ha) | Postemergence herbicidal rating SETVI ([6]; Rate 0.0313 kg/ha) | Postemergence herbicidal rating SETVI ([6]; Rate 0.0625 kg/ha) | Preemergence herbicidal rating CASOB ([9]; rate 0.1250 kg/ha) | Preemergence herbicidal rating CASOB ([9]; rate 0.2500 kg/ha) | Preemergence herbicidal rating GALAP ([10]; rate 0.1250 kg/ha) | Preemergence herbicidal rating GALAP ([10]; rate 0.2500 kg/ha) | Preemergence herbicidal rating ZEAMX ([11]; rate 0.1250 kg/ha) | Herbicidal rating CYPIR ([12]; 0.0313 kg/ha) | Herbicidal rating CYPIR ([12]; 0.0625 kg/ha) | Herbicidal rating CYPIR ([12]; 0.1250 kg/ha) | Herbicidal rating CYPIR ([12]; 0.2500 kg/ha) | Herbicidal rating CYPSE ([13]; 0.0313 kg/ha) | Herbicidal rating CYPSE ([13]; 0.0625 kg/ha) | Herbicidal rating CYPSE ([13]; 0.1250 kg/ha) | Herbicidal rating SAGPY ([14]; 0.0313 kg/ha) | Herbicidal rating SAGPY ([14]; 0.0625 kg/ha) | Herbicidal rating SAGPY ([14]; 0.1250 kg/ha) | Herbicidal rating CYPSE ([15]; rate 0.0313 kg/ha) | Herbicidal rating CYPSE ([15]; rate 0.0625 kg/ha) | Herbicidal rating CYPSE ([15]; rate 0.1250 kg/ha)
3.0: Herbicidal rating SAGPY ([14]; 0.2500 kg/ha)
